Here are results for 1 molecule from patent US20030147950A1, “Modified release tamsulosin tablets” (priority 2001, published 2003).

Molecules are shown by their SMILES.

The series is described as follows: Solubility of tamsulosin HCl in aqueous media. As to conditions: up to 10 mg. The class given is physicochemical. The text has this: SGF represents a standard stomach condition. SIF represents a standard intestinal condition. FeSSIF is tailored to better represent the fed state while FaSSIF is tailored to better represent the fasting state. Note that not only are the pH different, but equally important, the osmolarity are also different.

Take `CCOc1ccccc1OCCNC(C)Cc1ccc(OC)c(S(N)(=O)=O)c1` (stereo not shown) [tamsulosin HCI, 5-[2-[[2-(2-ethoxyphenoxy)ethyl]amino]propyl]-2-methoxy-benzenesulfonamide]: the “volume of any aqueous media needed to dissolve until 10 mg” value is recorded as “not more than 500 ml”.
